# Measured values published in patent publication US10251395B2, “Substituted furano-/thienocycloalkylamino-2-pyrimidine derivatives and use thereof for controlling undesired plant growth” (Bayer CropScience Aktiengesellschaft, priority 2015, dated 2019).
# How the values were obtained:
# Format in all cases: in vivo
# [1] = system: Abutilon theophrasti; assay: Pre-emergence herbicidal effect; conditions: Dosage 320 g/ha, scored visually after 3 weeks
# How it was run: (§1)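 Scoring: visual, 3 weeks, % vs untreated (100% = died). Treatment: WP or EC in water, 0.2% wetting agent, sprayed on covering soil after sowing in sandy loam.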
# [2] = system: Alopecurus myosuroides; assay: Pre-emergence herbicidal effect; conditions: Dosage 320 g/ha, scored visually after 3 weeks
# How it was run: as §1
# [3] = system: Amaranthus retroflexus; assay: Pre-emergence herbicidal effect; conditions: scored visually after 3 weeks
# How it was run: as §1
# [4] = system: Echinochloa crus-galli; assay: Pre-emergence herbicidal effect; conditions: scored visually after 3 weeks
# How it was run: as §1
# [5] = system: Matricaria inodora; assay: Pre-emergence herbicidal effect; conditions: scored visually after 3 weeks
# How it was run: as §1
# [6] = system: Polygonum convolvulus; assay: Pre-emergence herbicidal effect; conditions: scored visually after 3 weeks
# How it was run: as §1
# [7] = system: Setaria viridis; assay: Pre-emergence herbicidal effect; conditions: scored visually after 3 weeks
# How it was run: as §1
# [8] = system: Stellaria media; assay: Pre-emergence herbicidal effect; conditions: scored visually after 3 weeks
# How it was run: as §1
# [9] = system: Veronica persica; assay: Pre-emergence herbicidal effect; conditions: scored visually after 3 weeks
# How it was run: as §1
# [10] = system: Viola tricolor; assay: Pre-emergence herbicidal effect; conditions: scored visually after 3 weeks
# How it was run: as §1
# [11] = system: Abutilon theophrasti; assay: Post-emergence herbicidal effect; conditions: assessed visually after about 3 weeks vs untreated controls
# How it was run: (§2)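 Herbicidal effect was rated visually roughly 3 weeks after foliar treatment, as % versus untreated plants, with 0% meaning the same as controls and 100% meaning dead. Plants were treated at the one-leaf stage in the greenhouse with aqueous WP or EC sprays at 600–800 L/ha containing 0.2% wetter.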
# [12] = system: Amaranthus retroflexus; assay: Post-emergence herbicidal effect; conditions: assessed visually after about 3 weeks vs untreated controls
# How it was run: as §2
# [13] = system: Echinochloa crus-galli; assay: Post-emergence herbicidal effect; conditions: 320 g/ha, assessed visually after about 3 weeks vs untreated controls
# How it was run: as §2
# [14] = system: Stellaria media; assay: Post-emergence herbicidal effect; conditions: assessed visually after about 3 weeks vs untreated controls
# How it was run: as §2
# [15] = system: Veronica persica; assay: Post-emergence herbicidal effect; conditions: 320 g/ha, assessed visually after about 3 weeks vs untreated controls
# How it was run: as §2
# [16] = system: Viola tricolor; assay: Post-emergence herbicidal effect; conditions: assessed visually after about 3 weeks vs untreated controls
# How it was run: as §2
# [17] = system: Lolium multiflorum; assay: Pre-emergence herbicidal effect; conditions: Dosage 320 g/ha, scored visually after 3 weeks
# How it was run: as §1
# [18] = system: Polygonum convolvulus; assay: Post-emergence herbicidal effect; conditions: 320 g/ha, assessed visually after about 3 weeks vs untreated controls
# How it was run: as §2
# [19] = system: Ipomoea purpurea; assay: Post-emergence herbicidal effect; conditions: assessed visually after about 3 weeks vs untreated controls
# How it was run: as §2
# [20] = system: Matricaria inodora; assay: Post-emergence herbicidal effect; conditions: assessed visually after about 3 weeks vs untreated controls
# How it was run: as §2
# [21] = system: Setaria viridis; assay: Post-emergence herbicidal effect; conditions: 320 g/ha, assessed visually after about 3 weeks vs untreated controls
# How it was run: as §2
smiles,measurement,setting,value
Cc1cc2c(s1)C(Nc1ncc3c(n1)CCCC3=O)CCC2 (racemic) [compound 8],ABUTH pre-emergence efficacy (herbicidal activity),[1],100%
same,ALOMY pre-emergence efficacy (herbicidal activity),[2],80%
same,AMARE pre-emergence efficacy (herbicidal activity),[3]; Dosage 80 g/ha,100%
same,AMARE pre-emergence efficacy (herbicidal activity),[3]; Dosage 320 g/ha,100%
same,ECHCG pre-emergence efficacy (herbicidal activity),[4]; Dosage 80 g/ha,90%
same,ECHCG pre-emergence efficacy (herbicidal activity),[4]; Dosage 320 g/ha,100%
same,MATIN pre-emergence efficacy (herbicidal activity),[5]; Dosage 80 g/ha,100%
same,MATIN pre-emergence efficacy (herbicidal activity),[5]; Dosage 320 g/ha,100%
same,POLCO pre-emergence efficacy (herbicidal activity),[6]; Dosage 80 g/ha,100%
same,POLCO pre-emergence efficacy (herbicidal activity),[6]; Dosage 320 g/ha,100%
same,SETVI pre-emergence efficacy (herbicidal activity),[7]; Dosage 80 g/ha,90%
same,SETVI pre-emergence efficacy (herbicidal activity),[7]; Dosage 320 g/ha,100%
same,STEME pre-emergence efficacy (herbicidal activity),[8]; Dosage 80 g/ha,80%
same,STEME pre-emergence efficacy (herbicidal activity),[8]; Dosage 320 g/ha,100%
same,VERPE pre-emergence efficacy (herbicidal activity),[9]; Dosage 80 g/ha,100%
same,VERPE pre-emergence efficacy (herbicidal activity),[9]; Dosage 320 g/ha,100%
same,VIOTR pre-emergence efficacy (herbicidal activity),[10]; Dosage 80 g/ha,100%
same,VIOTR pre-emergence efficacy (herbicidal activity),[10]; Dosage 320 g/ha,100%
same,post-emergence efficacy ABUTH,[11]; 320 g/ha,80%
same,post-emergence efficacy AMARE,[12]; 320 g/ha,90%
same,post-emergence efficacy ECHCG,[13],100%
same,post-emergence efficacy STEME,[14]; 80 g/ha,80%
same,post-emergence efficacy STEME,[14]; 320 g/ha,90%
same,post-emergence efficacy VERPE,[15],90%
same,post-emergence efficacy VIOTR,[16]; 320 g/ha,90%
CO/N=C(/C)c1cnc(NC2CCCc3sccc32)nc1N (racemic) [compound 292],ALOMY pre-emergence efficacy (herbicidal activity),[2],100%
same,AMARE pre-emergence efficacy (herbicidal activity),[3]; Dosage 320 g/ha,100%
same,ECHCG pre-emergence efficacy (herbicidal activity),[4]; Dosage 320 g/ha,100%
same,LOLMU pre-emergence efficacy (herbicidal activity),[17],70%
same,MATIN pre-emergence efficacy (herbicidal activity),[5]; Dosage 80 g/ha,80%
same,MATIN pre-emergence efficacy (herbicidal activity),[5]; Dosage 320 g/ha,100%
same,POLCO pre-emergence efficacy (herbicidal activity),[6]; Dosage 80 g/ha,70%
same,SETVI pre-emergence efficacy (herbicidal activity),[7]; Dosage 320 g/ha,100%
same,STEME pre-emergence efficacy (herbicidal activity),[8]; Dosage 80 g/ha,100%
same,STEME pre-emergence efficacy (herbicidal activity),[8]; Dosage 320 g/ha,100%
same,VERPE pre-emergence efficacy (herbicidal activity),[9]; Dosage 80 g/ha,100%
same,VERPE pre-emergence efficacy (herbicidal activity),[9]; Dosage 320 g/ha,100%
same,VIOTR pre-emergence efficacy (herbicidal activity),[10]; Dosage 80 g/ha,100%
same,VIOTR pre-emergence efficacy (herbicidal activity),[10]; Dosage 320 g/ha,100%
same,post-emergence efficacy ABUTH,[11]; 320 g/ha,80%
same,post-emergence efficacy AMARE,[12]; 320 g/ha,80%
same,post-emergence efficacy POLCO,[18],30%
same,post-emergence efficacy STEME,[14]; 320 g/ha,90%
same,post-emergence efficacy VIOTR,[16]; 320 g/ha,80%
CC(=NO)c1cnc(NC2CCCc3sc(C)cc32)nc1N (racemic) [compound 341],ABUTH pre-emergence efficacy (herbicidal activity),[1],70%
same,ALOMY pre-emergence efficacy (herbicidal activity),[2],70%
same,AMARE pre-emergence efficacy (herbicidal activity),[3]; Dosage 80 g/ha,100%
same,AMARE pre-emergence efficacy (herbicidal activity),[3]; Dosage 320 g/ha,100%
same,ECHCG pre-emergence efficacy (herbicidal activity),[4]; Dosage 80 g/ha,60%
same,ECHCG pre-emergence efficacy (herbicidal activity),[4]; Dosage 320 g/ha,100%
same,MATIN pre-emergence efficacy (herbicidal activity),[5]; Dosage 80 g/ha,100%
same,MATIN pre-emergence efficacy (herbicidal activity),[5]; Dosage 320 g/ha,100%
same,POLCO pre-emergence efficacy (herbicidal activity),[6]; Dosage 80 g/ha,70%
same,POLCO pre-emergence efficacy (herbicidal activity),[6]; Dosage 320 g/ha,100%
same,SETVI pre-emergence efficacy (herbicidal activity),[7]; Dosage 80 g/ha,90%
same,SETVI pre-emergence efficacy (herbicidal activity),[7]; Dosage 320 g/ha,100%
same,STEME pre-emergence efficacy (herbicidal activity),[8]; Dosage 80 g/ha,100%
same,STEME pre-emergence efficacy (herbicidal activity),[8]; Dosage 320 g/ha,100%
same,VERPE pre-emergence efficacy (herbicidal activity),[9]; Dosage 80 g/ha,100%
same,VERPE pre-emergence efficacy (herbicidal activity),[9]; Dosage 320 g/ha,100%
same,VIOTR pre-emergence efficacy (herbicidal activity),[10]; Dosage 80 g/ha,100%
same,VIOTR pre-emergence efficacy (herbicidal activity),[10]; Dosage 320 g/ha,100%
same,post-emergence efficacy ABUTH,[11]; 80 g/ha,80%
same,post-emergence efficacy ABUTH,[11]; 320 g/ha,90%
same,post-emergence efficacy AMARE,[12]; 80 g/ha,80%
same,post-emergence efficacy AMARE,[12]; 320 g/ha,90%
same,post-emergence efficacy ECHCG,[13],70%
same,post-emergence efficacy PHBPU,[19]; 80 g/ha,80%
same,post-emergence efficacy PHBPU,[19]; 320 g/ha,90%
same,post-emergence efficacy MATIN,[20]; 80 g/ha,60%
same,post-emergence efficacy MATIN,[20]; 320 g/ha,90%
same,post-emergence efficacy SETVI,[21],60%
same,post-emergence efficacy STEME,[14]; 320 g/ha,60%
same,post-emergence efficacy VERPE,[15],100%
same,post-emergence efficacy VIOTR,[16]; 80 g/ha,90%
same,post-emergence efficacy VIOTR,[16]; 320 g/ha,90%
